Measured values from PubChem BioAssay AID1996.
Values after ≈ are worked out from the molar mass of the structure shown.

Conditions: buffer; pH 7.4; 200.0 µM
COc1cc(/C(O)=C(\C#N)c2nc3ccccc3[nH]2)cc(OC)c1OC gave a solubility kinetic of 7.1 µg/mL (≈ 20.2 µM). With Cn1ccnc1C(=O)c1cccc(Br)c1 the solubility kinetic was greater than 39.8 µg/mL. For COC(=O)c1ccc(C(=O)Nc2ccc3c(c2)C(=O)NC3=O)cc1, the solubility kinetic was less than 0.3 µg/mL. With Cn1cc(CCC(=O)NCc2cccc(Cl)c2)c2ccccc21 the solubility kinetic was 9.9 µg/mL (≈ 30.3 µM). With COC(=O)CC(c1ccccc1F)N1Cc2ccccc2C1=O (stereo unspecified) the solubility kinetic was greater than 47 µg/mL. In the case of NC(=O)/C(=C\c1ccco1)NC(=O)c1ccc(Br)o1, the solubility kinetic is reported as 42.9 µg/mL (≈ 132 µM). COc1cccc(-c2cc(C(=O)NC3CCCC3)c3ccccc3n2)c1 gave a solubility kinetic of 1.3 µg/mL (≈ 3.75 µM). For CCOc1ccccc1NC(=O)CCNC(=O)c1ccc(Cl)cc1, the solubility kinetic was 5.6 µg/mL (≈ 16.1 µM). In the case of CC(=O)Nc1cccc(C(=O)OC(C)C(=O)N2CCc3ccccc32)c1 (stereo unspecified), the solubility kinetic is reported as 1.3 µg/mL (≈ 3.69 µM). In the case of O=C(NC1CCCCCC1)C1CC(=O)N(c2ccc(Cl)cc2)C1 (stereo unspecified), the solubility kinetic is reported as 6.3 µg/mL (≈ 18.8 µM). Compound Oc1ccc2ccccc2c1C=NC1CCCCC1 has a solubility kinetic greater than 38 µg/mL. Cc1nccc(-c2ccc3c(c2)OCO3)n1 showed a solubility kinetic of 30.3 µg/mL (≈ 141 µM). For Cc1ccccc1NC(=O)C[n+]1cc(-c2ccccc2)n2c1CCC2.[Cl-], the solubility kinetic was greater than 55.2 µg/mL. Work on NC(N)=Nc1nc(-c2ccccc2)c2cc(F)ccc2n1 yielded a solubility kinetic greater than 42.2 µg/mL. For O=C1CCN(C(=S)NCCc2ccccc2)CC1, the solubility kinetic was greater than 39.4 µg/mL. Compound CC(=O)c1c(C)[nH]c(-c2ccccc2)nc1=S has a solubility kinetic of 33.2 µg/mL (≈ 136 µM). Cn1cc(/C=C2\SC(=O)N(c3ccc(O)cc3)C2=O)c2ccccc21 showed a solubility kinetic of less than 0.4 µg/mL. S=C(NCCCc1ccccc1)NCc1ccccc1 showed a solubility kinetic of 23.4 µg/mL (≈ 82.3 µM). Work on O=C(Cc1ccc(Br)cc1)NCCN1CCOCC1 yielded a solubility kinetic greater than 49.1 µg/mL. Cc1ccc(NC(=O)NCCCCc2ccccc2)cc1 gave a solubility kinetic of less than 0.3 µg/mL. CCNc1nc(-c2cc(C)n(Cc3ccco3)c2C)cs1 gave a solubility kinetic of 5.2 µg/mL (≈ 17.3 µM). Compound O=C(COC(=O)C1CCC1)Nc1ccc(Cl)cn1 has a solubility kinetic greater than 40.3 µg/mL. Nc1nccnc1C(=O)OCC(=O)NNC(=O)c1ccccc1 showed a solubility kinetic greater than 47.3 µg/mL. In the case of COc1ccc(C(=O)NC2=NCCS2)cc1, the solubility kinetic is reported as greater than 35.4 µg/mL. Compound COc1ccccc1-c1cc(-c2ccc(O)cc2)nc(N)c1C#N has a solubility kinetic of 3.7 µg/mL (≈ 11.7 µM). NC(=S)NNC(=O)COc1ccccc1O showed a solubility kinetic greater than 36.2 µg/mL. In the case of CCn1c(/C=C2\C(=O)N(C(C)C)c3ccccc32)nc2ccccc2c1=O, the solubility kinetic is reported as 22.2 µg/mL (≈ 61.8 µM). CCN(CC)C1CCN(c2nc3nonc3nc2NCCOC)C1 (stereo unspecified) gave a solubility kinetic of 46.8 µg/mL (≈ 140 µM). For CC(Cc1ccccc1)N1C(=O)c2ccccc2C1=O (stereo unspecified), the solubility kinetic was 10.6 µg/mL (≈ 40 µM). Work on Cc1ccc(C(=O)CCc2ccc(N)cc2)cc1 yielded a solubility kinetic of 34.9 µg/mL (≈ 146 µM). Compound CS(=O)(=O)O.OC(CCN1CCCCC1)(c1ccccc1)c1ccccc1 has a solubility kinetic greater than 58.7 µg/mL. With Cn1c(N)c(S(=O)(=O)N2CCCC2)c(=O)n(C)c1=O the solubility kinetic was greater than 43.2 µg/mL. Cc1occc1C(=O)Nc1ccc(S(N)(=O)=O)cc1 showed a solubility kinetic greater than 42 µg/mL. Work on CCOC(=O)CCCNC(=O)CSc1nc2ccc(OCC)cc2[nH]1 yielded a solubility kinetic of 51.4 µg/mL (≈ 141 µM). In the case of O=C(C[n+]1ccc(/C=N/O)cc1)NC(=O)Nc1ccccc1, the solubility kinetic is reported as 41.6 µg/mL. In the case of O=C(OCc1ccccc1)c1cnc(Cl)c(Cl)c1, the solubility kinetic is reported as 2.1 µg/mL (≈ 7.44 µM). CC(C)OC(=O)CC1C(=O)NCCN1C(=O)COc1ccc(C(C)(C)C)cc1 (stereo unspecified) gave a solubility kinetic of 49.4 µg/mL (≈ 127 µM). With CC(C)C1Oc2ccccc2N(CC(=O)N(C)C2CCCCC2)C1=O (stereo unspecified) the solubility kinetic was greater than 51.7 µg/mL. Compound Cc1ccc2c(c1)N(CC(=O)Nc1nccs1)C(=O)CO2 has a solubility kinetic of 1.3 µg/mL (≈ 4.29 µM). For Cc1ccc(S(=O)(=O)N(C)C)cc1NC(=O)C1CCCCC1, the solubility kinetic was greater than 48.7 µg/mL. Compound O=c1c(-c2ccccc2)cnc2n1CCS2 has a solubility kinetic greater than 34.5 µg/mL. With O=C1CC(N2CCC(c3nc4ccccc4o3)CC2)C(=O)N1 (stereo unspecified) the solubility kinetic was 43.1 µg/mL (≈ 144 µM). With O=C(Nc1ccccc1)c1c2c(nc3ccccc13)CCCC2 the solubility kinetic was 0.5 µg/mL (≈ 1.65 µM). Compound Oc1cccc(Nc2nc(N3CCOCC3)nc(N3CCOCC3)n2)c1 has a solubility kinetic of 46.1 µg/mL (≈ 129 µM). Compound CCCN1C(=S)c2ccccc2C1c1ccccc1 (stereo unspecified) has a solubility kinetic of 8.8 µg/mL (≈ 32.9 µM). For CCOC(=O)CNc1nc(Cl)nc(Nc2ccc(Cl)cc2)n1, the solubility kinetic was less than 0.1 µg/mL. CCOc1cccc(/C=C(\C#N)C(=O)NC2CC2)c1 showed a solubility kinetic of 27.2 µg/mL (≈ 106 µM). With Clc1cc(Cl)cc(NC2=NCCS2)c1 the solubility kinetic was 8.8 µg/mL (≈ 35.6 µM). In the case of CCCCN(C)C(=O)c1cc2cc3ccc(OC)cc3nc2o1, the solubility kinetic is reported as 14.5 µg/mL (≈ 46.4 µM). In the case of CC1(C)NC(=O)N(CCOc2ccc([N+](=O)[O-])cc2)C1=O, the solubility kinetic is reported as greater than 44 µg/mL. CC(=O)Nc1ccc(SCc2c(C)noc2C)cc1 gave a solubility kinetic greater than 41.5 µg/mL. Work on Cc1ccc(NC(=S)NCCc2ccccc2)nc1 yielded a solubility kinetic of less than 0.2 µg/mL. In the case of COc1cc2c(cc1OC)CN(C(=O)Cn1ccccc1=O)CC2, the solubility kinetic is reported as greater than 49.3 µg/mL. Compound CCc1ccc(NC(=O)c2cnccn2)cc1 has a solubility kinetic of 21.4 µg/mL (≈ 94.2 µM). With NC(=O)c1ccccc1NS(=O)(=O)c1ccc(F)cc1 the solubility kinetic was greater than 44.1 µg/mL. In the case of Cc1ccc(C(=O)NCC(=O)N2CCN(c3cccc(Cl)c3)CC2)s1, the solubility kinetic is reported as 2.8 µg/mL (≈ 7.41 µM). CCOC(=O)NC(C(Cl)(Cl)Cl)S(=O)(=O)c1ccccc1 (stereo unspecified) gave a solubility kinetic greater than 54.1 µg/mL. For COC(=O)c1ccccc1NS(=O)(=O)c1ccc(Cl)nc1, the solubility kinetic was 48 µg/mL (≈ 147 µM). Work on CC(=O)c1cc(C#N)c(SCC(=O)Nc2nccs2)nc1C yielded a solubility kinetic of 0.7 µg/mL (≈ 2.11 µM). For Cc1ccc(N2C(=O)C3C4C=CC(CC4)C3C2=O)cc1Cl (stereo unspecified), the solubility kinetic was 1.4 µg/mL (≈ 4.64 µM). In the case of COc1ccc(CCNC(=S)N(C)C)cc1OC, the solubility kinetic is reported as greater than 40.3 µg/mL. For O=C(COC(=O)/C=C/c1cccc(Cl)c1)NCc1cccs1, the solubility kinetic was 6.1 µg/mL (≈ 18.2 µM). In the case of Cc1cnc(C(=O)Oc2c(C)ccc(C)c2C)cn1, the solubility kinetic is reported as 38.2 µg/mL (≈ 149 µM). CCCN1C(=O)CC(Sc2ncccc2C(=O)O)C1=O (stereo unspecified) gave a solubility kinetic of 42.5 µg/mL (≈ 144 µM). For O=C(NCCN1C(=O)S/C(=C\c2ccc(Cl)cc2)C1=O)C1=COCCO1, the solubility kinetic was 2.6 µg/mL (≈ 6.59 µM). CC(C)C(=O)Nc1ccc(NC(=O)c2ccc3c(c2)OCO3)cc1 showed a solubility kinetic of less than 0.3 µg/mL. Compound C=CCSc1nc2sc3c(c2c(=O)n1-c1ccc(C)cc1)CCN(C)C3 has a solubility kinetic of 22.3 µg/mL (≈ 58.1 µM). COc1cc([N+](=O)[O-])ccc1NC(=O)Nc1ccc2c(c1)OCCO2 showed a solubility kinetic of less than 0.2 µg/mL. For Cc1nc2ccccc2c(=O)n1-c1cc([N+](=O)[O-])cc([N+](=O)[O-])c1, the solubility kinetic was 17.1 µg/mL (≈ 52.4 µM). CC(=O)Nc1nc(C)c(Oc2cccc(C(F)(F)F)c2)c(=O)[nH]1 showed a solubility kinetic of 45.1 µg/mL (≈ 138 µM). Work on C=CCNC(=O)c1ccc2c(c1)N(CC)C(=O)c1ccccc1S2 yielded a solubility kinetic greater than 50.8 µg/mL. With Cn1c(N)c(C(=O)CSc2nnc(C3CC3)n2-c2ccccc2)c(=O)[nH]c1=O the solubility kinetic was greater than 59.8 µg/mL. CCC(C)N1C(=O)CCC1C(=O)NCCc1ccc(Cl)cc1 (stereo unspecified) showed a solubility kinetic greater than 48.4 µg/mL. Work on O=C(Nc1ccncc1)Nc1ccncc1 yielded a solubility kinetic greater than 32.1 µg/mL. Compound CCc1c(C)sc(NC(=S)Nc2cccnc2)c1C(=O)OC has a solubility kinetic greater than 50.3 µg/mL. Oc1ccccc1C=Nc1cccc2ccccc12 showed a solubility kinetic of 9.4 µg/mL (≈ 38 µM). For CN1C(=O)C(CC(=O)O)S/C1=N\N=C\c1ccc(O)cc1O (stereo unspecified), the solubility kinetic was greater than 48.5 µg/mL. Compound Cc1cc(C)c(C#N)c(N2CCN(c3ccc(F)cc3)CC2)n1 has a solubility kinetic of less than 0.2 µg/mL. For Cc1ccc(C(=O)OCC(=O)N2c3ccccc3NC(=O)C2(C)C)cc1S(=O)(=O)N1CCCCC1, the solubility kinetic was 3.6 µg/mL (≈ 7.21 µM). Cn1c(=O)cc(N)n(-c2ccccc2)c1=O gave a solubility kinetic greater than 32.6 µg/mL. CC(=O)Nc1ccc(C(=O)NCCCOC(C)C)cc1 gave a solubility kinetic of 39.6 µg/mL (≈ 142 µM). Compound C=CCNC(=O)COC(=O)c1cccnc1Nc1ccccc1F has a solubility kinetic of 17.9 µg/mL (≈ 54.4 µM). Work on C=CCOc1ccc(C2NC(=O)c3ccccc3O2)cc1OCC (stereo unspecified) yielded a solubility kinetic of 2.6 µg/mL (≈ 7.99 µM). CC(=O)Nc1ccc(N/C=C/C(=O)c2ccc(C)cc2)cc1 gave a solubility kinetic of 3.2 µg/mL (≈ 10.9 µM). COc1ccc(CCN=C(C)c2cc(C)c(C)cc2O)cc1OC showed a solubility kinetic greater than 49.1 µg/mL. With Cc1ccc(C(C)NC(=O)c2cccs2)cc1 (stereo unspecified) the solubility kinetic was 20.7 µg/mL (≈ 84.4 µM).
